Among the data in patent publication US10953012B2, “Heterocyclic compounds for the inhibition of pask” (BioEnergenix LLC, priority 2011, dated 2021) are IC50 values, retold here.

The target in the test is PASK (Homo sapiens (Human), UniProt Q96RG2). The test is described as follows: PAS Kinase FRET Assay. Format: biochemical. Particulars: TR-FRET assay; read-out: IC50 Kinase Domain. From the text: The aim of the FRET assay is to determine the inhibition potential of test compounds on targeted kinase. This assay platform provides a homogenous screening method for measuring kinase activity by quantitating the amount of phospho-substrate in solution following a kinase reaction.
PASK, sequence (Q96RG2 999-1251): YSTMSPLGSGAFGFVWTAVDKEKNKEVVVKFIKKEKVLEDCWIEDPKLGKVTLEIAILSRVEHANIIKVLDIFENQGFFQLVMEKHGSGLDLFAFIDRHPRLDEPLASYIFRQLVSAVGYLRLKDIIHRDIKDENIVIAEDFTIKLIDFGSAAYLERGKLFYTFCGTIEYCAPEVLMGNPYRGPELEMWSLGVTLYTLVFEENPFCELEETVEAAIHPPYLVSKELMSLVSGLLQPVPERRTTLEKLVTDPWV
In the presence of kinase and ATP, the Ulight-peptide is phosphorylated and captured by an anti-phospho-substrate antibody, which brings the Eu chelate donor and Ulight acceptor dyes into close proximity. Upon excitation at 340 nm, the Eu chelate transfers its energy to the Ulight dye, resulting in a fluorescent light emission at 665 nm
Titration of kinase at 1 mM ATP was achieved via the following protocol. After making serial three-fold dilutions of PASK (Invitrogen) in reaction buffer across the plate; 5 μl of kinase dilution and 5 μl substrate/ATP mix were added to the wells of the white Optiplate-384 (PerkinElmer). The contents of the plate were and incubated at RT for 1 h. The reaction was stopped by adding 5 μl of stop solution to each test well followed by mixing and incubation at RT for 10 minutes. 5 μl of detection mix (detection antibody diluted in detection buffer) was added; the contents of the plate were mixed and then incubated in the dark for 1 hour at RT. The signal was recorded at TR-FRET mode (665 nm/615 nm). The results were graphed to calculate the EC50.
Titration of ATP at the EC50 concentration of kinase to determine ATP Km, app. was performed using the following method. After making serial dilutions of ATP (Invitrogen), 5 μl of ATP dilution and 5 μl substrate/kinase mix were added to the wells of the white Optiplate-384 (PerkinElmer). The contents of the plate were and incubated at RT for 1 h. The reaction was stopped by adding 5 μl of stop solution to each test well followed by mixing and incubation at RT for 10 minutes. 5 μl of detection mix (detection antibody diluted in detection buffer) was added; the contents of the plate were mixed and then incubated in the dark for 1 hour at RT. The signal was recorded at TR-FRET mode (665 nm/615 nm). The results were graphed to calculate the EC50 as the ATP Km, app.
Compound screening was done via the following method. 10 mM stock solution of test compound in DMSO was prepared by dissolving test compound in DMSO at RT for 1 hour, and then sonicating at 100% output for 8 minutes. If compound is not soluble under this condition, it was diluted to 3 mM. Kinase reaction buffer was prepared containing 10 mM MgCl2, 50 mM HEPES, 1 mM EGTA, 0.01% TWEEN-20, 2 mM DTT. Serial dilutions of the test compounds were prepared at 4×final assay concentrations using Freedom EVO200® dispensing system as follows: 12×10^−5 M, 4×10^−5 M, 1.33×10^−5 M, 4.44×10^−6 M, 1.48×10^−6 M, 4.92×10^−7 M, 1.65×10^−7 M, […], 1.82×10^−8M, 6.09×10^−9, 2.03×10^−9 M. Test compounds (2.5 μl at 4× the final assay concentration) was added to wells using Freedom EVO200® dispensing system. As a positive control, 2.5 μl of positive compound was added to assay wells, and 2.5 μl of DMSO to assay wells as vehicle control. Kinase solution was prepared in reaction buffer at 2×final assay concentration. Kinase solution (5 μl) was added to each well of the assay plate. The substrate and ATP solution was prepared in kinase reaction buffer at 4×final assay concentration. The kinase reaction was started by adding 2.5 μl of substrate+ATP mix solution to each well of the assay plate. The plate is mixed on a plate shaker; then covered and allowed to react for 2 hours in the dark at 25° C. without shaking. The reaction was stopped by adding 5 μl of stop solution to each test well followed by mixing and incubation at RT for 10 minutes in the dark. 5 μl of detection mix (detection antibody diluted in detection buffer) was added; the contents of the plate were mixed and then incubated in the dark for 1 hour at RT. The signal was recorded at TR-FRET mode (665 nm/615 nm).
A general note: In TR-FRET formats the signal depends on donor and acceptor labels being close together.
In general, IC50 refers to the concentration at which inhibition is half-maximal. `Cc1nn2c(=O)cc(-c3ccc(O)cc3)[nH]c2c1-c1ccccc1` [Example 80, 5-(4-Hydroxyphenyl)-2-methyl-3-phenylpyrazolo[1,5-a]pyrimidin-7(4H)-one]: the half-maximal inhibitory concentration (IC50) was no more than 10 µM. Next, `COc1ccc(-c2cnn3c(=O)cc(-c4ccc5c(c4)OCCO5)[nH]c23)cc1` [Example 82, 5-(2,3-Dihydrobenzo[b][1,4]dioxin-6-yl)-3-(4-methoxyphenyl)pyrazolo[1,5-a]pyrimidin-7(4H)-one]: no more than 10 µM; `Cc1nn2c(=O)cc(-c3ccc4ncccc4c3)[nH]c2c1-c1ccc(F)cc1` [Example 83, 3-(4-Fluorophenyl)-2-methyl-5-(quinolin-6-yl)pyrazolo[1,5-a]pyrimidin-7(4H)-one]: no more than 10 µM; `COc1ccc(-c2c(C)nn3c(=O)cc(-c4ccc5ncccc5c4)[nH]c23)cc1` [Example 84, 3-(4-Methoxyphenyl)-2-methyl-5-(quinolin-6-yl)pyrazolo[1,5-a]pyrimidin-7(4H)-one]: no more than 10 µM. Next, `COc1ccc(-c2c(C)nn3c(=O)cc(-c4ccc5c(c4)OCCO5)[nH]c23)cc1` [Example 85, 5-(2,3-Dihydrobenzo[b][1,4]dioxin-6-yl)-3-(4-methoxyphenyl)-2-methylpyrazolo[1,5-a]pyrimidin-7(4H)-one]: no more than 10 µM. The value for `O=c1cc(-c2ccc3c(c2)OCCO3)[nH]c2c(-c3ccc(F)cc3)cnn12` [Example 86, 5-(2,3-Dihydrobenzo[b][1,4]dioxin-6-yl)-3-(4-fluorophenyl)pyrazolo[1,5-a]pyrimidin-7(4H)-one] was no more than 10 µM.

Turning to `Cc1nn2c(=O)cc(-c3ccc4[nH]ccc4c3)[nH]c2c1-c1ccccc1` [Example 87, 5-(1H-Indol-5-yl)-2-methyl-3-phenylpyrazolo[1,5-a]pyrimidin-7(4H)-one], the half-inhibitory concentration (IC50) is no more than 10 µM. Next, `O=c1cc(-c2ccccc2)[nH]c2c(-c3ccc(N4CCCCC4)nc3)cnn12` [Example 88, 5-Phenyl-3-(6-(piperidin-1-yl)pyridin-3-yl)pyrazolo[1,5-a]pyrimidin-7(4H)-one]: no less than 10 µM; `O=c1cc(-c2ccc3c(c2)OCCO3)[nH]c2c(-c3cccc(Cl)c3)cnn12` [Example 90, 3-(3-Chlorophenyl)-5-(2,3-dihydrobenzo[b][1,4]dioxin-6-yl)pyrazolo[1,5-a]pyrimidin-7(4H)-one]: no more than 10 µM. The value for `O=c1cc(-c2ccc3c(c2)OCCO3)[nH]c2c(-c3ccc(Br)cc3)cnn12` [Example 104, 3-(4-Bromophenyl)-5-(2,3-dihydrobenzo[b][1,4]dioxin-6-yl)pyrazolo[1,5-a]pyrimidin-7(4H)-one] was no more than 10 µM; that for `O=c1cc(-c2ccccc2)[nH]c2c(-c3ccc(O)nc3)cnn12` [Example 105, 3-(6-Hydroxypyridin-3-yl)-5-phenylpyrazolo[1,5-a]pyrimidin-7(4H)-one] was no more than 10 µM; that for `COc1ccc(-c2cnn3c(=O)cc(-c4ccccc4)[nH]c23)cn1` [Example 112, 3-(6-Methoxypyridin-3-yl)-5-phenylpyrazolo[1,5-a]pyrimidin-7(4H)-one] was no more than 10 µM. The value for `O=C(O)c1cnn2c(=O)cc(-c3ccc4c(c3)OCCO4)[nH]c12` [Example 115, 5-(2,3-Dihydrobenzo[b][1,4]dioxin-6-yl)-7-oxo-4,7-dihydropyrazolo[1,5-a]pyrimidine-3-carboxylic acid] was no more than 10 µM; that for `O=c1cc(-c2ccc3c(c2)OCCO3)[nH]c2c(-c3ccc(N4CCOCC4)nc3)cnn12` [Example 118, 5-(2,3-Dihydrobenzo[b][1,4]dioxin-6-yl)-3-(6-morpholinopyridin-3-yl)pyrazolo[1,5-a]pyrimidin-7(4H)-one] was no more than 10 µM. As to `O=c1cc(-c2ccc(Cl)cc2Cl)[nH]c2c(-c3ccccn3)cnn12` [Example 124, 5-(2,4-Dichlorophenyl)-3-(pyridin-2-yl)pyrazolo[1,5-a]pyrimidin-7(4H)-one], the IC50 was no more than 10 µM. Next, `O=c1cc(-c2ccc(Cl)cc2)[nH]c2c(Cc3ccccc3)cnn12` [Example 132, 3-benzyl-5-(4-chlorophenyl)pyrazolo[1,5-a]pyrimidin-7(411)-one]: no more than 10 µM; `CCCc1cnn2c(=O)cc(-c3ccc4c(c3)OCO4)[nH]c12` [Example 134, 5-(Benzo[d][1,3]dioxol-5-yl)-3-propylpyrazolo[1,5-a]pyrimidin-7(4H)-one]: no more than 10 µM; `COc1cc(Cl)ccc1-c1cc(=O)n2ncc(-c3ccccn3)c2[nH]1` [Example 136, 5-(4-Chloro-2-methoxyphenyl)-3-(pyridin-2-yl)pyrazolo[1,5-a]pyrimidin-7(4H)-one]: no more than 10 µM. The value for `COc1nn2c(=O)cc(-c3ccc(Cl)cc3)[nH]c2c1C#N` [Example 138, 5-(4-Chlorophenyl)-2-methoxy-7-oxo-4,7-dihydropyrazolo[1,5-a]pyrimidine-3-carbonitrile] was no more than 10 µM; that for `N#Cc1c(O)nn2c(=O)cc(-c3ccc(Cl)cc3)[nH]c12` [Example 139, 5-(4-Chlorophenyl)-2-hydroxy-7-oxo-4,7-dihydropyrazolo[1,5-a]pyrimidine-3-carbonitrile] was no more than 10 µM.

As to `CS(=O)(=O)c1ccc(-c2cc(=O)n3ncc(-c4ccccn4)c3[nH]2)cc1` [Example 140, 5-(4-(Methylsulfonyl)phenyl)-3-(pyridin-2-yl)pyrazolo[1,5-a]pyrimidin-7(4H)-one], the IC50 was no more than 10 µM.

Regarding `O=C(c1cnn2c(=O)cc(-c3ccc4c(c3)OCCO4)[nH]c12)N1CCCC1` [Example 146, 5-(2,3-Dihydrobenzo[b][1,4]dioxin-6-yl)-3-(pyrrolidine-1-carbonyl)pyrazolo[1,5-a]pyrimidin-7(4H)-one], the IC50 was no more than 10 µM. Next, `Nc1nn2c(=O)cc(-c3cc4ccccc4o3)[nH]c2c1-c1ccccn1` [Example 151, 2-Amino-5-(benzofuran-2-yl)-3-(pyridin-2-yl)pyrazolo[1,5-a]pyrimidin-7(4H)-one]: no more than 10 µM. The value for `Nc1nn2c(=O)cc(-c3ccc(Cl)c(Cl)c3)[nH]c2c1-c1ccccn1` [Example 153, 2-Amino-5-(3,4-dichlorophenyl)-3-(pyridin-2-yl)pyrazolo[1,5-a]pyrimidin-7(4H)-one] was no more than 10 µM; that for `O=c1cc(-c2ccccc2)[nH]c2c(-c3cccnc3)c(O)nn12` [Example 154, 2-Hydroxy-5-phenyl-3-(pyridin-3-yl)pyrazolo[1,5-a]pyrimidin-7(4H)-one] was no more than 10 µM.

As for `COc1nn2c(=O)cc(-c3ccc4c(c3)OCO4)[nH]c2c1-c1ccccn1` [Example 157, 5-(Benzo[d][1,3]dioxol-5-yl)-2-methoxy-3-(pyridin-2-yl)pyrazolo[1,5-a]pyrimidin-7(4H)-one], the concentration for half-maximal inhibition (IC50) was no more than 10 µM. The value for `O=c1cc(-c2ccc(Cl)cc2F)[nH]c2c(-c3ccccn3)cnn12` [Example 162, 5-(4-Chloro-2-fluorophenyl)-3-(pyridin-2-yl)pyrazolo[1,5-a]pyrimidin-7(4H)-one] was no more than 10 µM; that for `Nc1nn2c(=O)cc(-c3ccc4occc4c3)[nH]c2c1-c1ccccn1` [Example 165, 2-Amino-5-(benzofuran-5-yl)-3-(pyridin-2-yl)pyrazolo[1,5-a]pyrimidin-7(4H)-one] was no more than 10 µM. The value for `Cc1coc2ccc(-c3cc(=O)n4nc(N)c(-c5ccccn5)c4[nH]3)cc12` [Example 166, 2-Amino-5-(3-methylbenzofuran-5-yl)-3-(pyridin-2-yl)pyrazolo[1,5-a]pyrimidin-7(4H)-one] was no more than 10 µM.
